Data set [1] concerns ventricular muscle (right ventricle). Kind of data set: Influence on Ventricular Muscle Refractory Period (ERP). The following applies: Canis lupus familiaris, iv, anesthetized dog, read-out: ERP (%; extensibility of refractory period); for change in vivo at 0.1 mg/kg: Dose 0.1 mg/kg i.v.; for change in vivo at 0.3 mg/kg: Dose 0.3 mg/kg i.v.; for change in vivo at 1 mg/kg: Dose 1.0 mg/kg i.v.; for change in vivo at 3 mg/kg: Dose 3.0 mg/kg i.v. In kind it is in vivo, mongrel adult dog. As for the experimental part: Refractory periods were measured in the following manner before and after each of the compounds and d-sotalol shown an Table A was separately administered to a vein or a duodenum, and ERP (%; extensibility of refractory period) was calculated from the measured values in accordance with the following formula: […]
W: Refractory period after administration
Y: Refractory period before administration
To a mongrel adult dog, 30 mg/kg of pentobarbital was administered intravenously, and after being anesthetized, a pair of silver-silver chloride electrodes separated by 3 mm was sewn on an opened right ventricule, and electrical stimulation was given at an interval of 400 msec at a duration time of 4 msec under a current twice as much as the threshold. Afterward, a small amount of alcohol was injected into a sinus artery in order to extinguish a pacemaker activity, and the ventricular refractory period (ERP) was measured under ventricule pacing.
That is, 1 train comprised 10 stimulations, and an interval between two of the trains was usually 400 msec. At the time of the refractory period measurement, however, the above interval was shortened every 10 smec, and the interval between the trains at the time when reaction to the first stimulation of the train disappeared was regarded as the refractory period.
In this case, the electrical stimulation was fed in accordance with a program by a heart stimulation device (Diamedical Co., Ltd.; DHM-226-3).

The nature of data set [2]: Toxicity Test 1 (oral, mortality 24 hours after administration). The following applies: mouse, in vivo, 300 mg/kg (P.O), 2 to 4 mice per group, read-out: Mortality Rate (%). As for the experimental part: Each of the compounds prepared in the above-mentioned examples shown in Table B was administered into a mouse (ddy strain, male). In each case, the administration was effected by oral administration in a dose of 300 mg/kg.
A mortality rate (number of specimens: one group=2 to 4 mice) of the mice 24 hours after the administration was calculated, and the results are set forth in Table B.

Data set [3] concerns Purkinje fiber of the right ventricular free wall. Kind of data set: Influence on Myocardial Action Potential Duration Time (APD75). In kind it is cell-based, hybrid adult dog. Conditions: Canis lupus familiaris, 20 min, 20 minutes' incubation, 1 Hz, 37° C.; for percent prolongation of action potential duration (APD75) at 3 µg/mL: Dose 3.0 (μg, ml); for percent prolongation of action potential duration (APD75) at 10 µg/mL: Dose 10.0 (μg, ml); for percent prolongation of action potential duration (APD75) at 0.3 µg/mL: Dose 0.3 (μg, ml); for percent prolongation of action potential duration (APD75) at 1 µg/mL: Dose 1.0 (μg, ml). On the procedure: To a hybrid adult dog, 30 mg/kg of pentobarbital was administered through a vein, and after being anesthetized, the heart was removed. Afterward, the right ventricular free wall of the heart was cut and taken out in a Tyrode solution.
The taken right ventricular free wall was fixed in an incubator at 37° C., and a nutritional solution (20 ml of the Tyrode solution) was refluxed.
In this isolated condition, myocardial action potential duration times (APD75) were measured before and after the administration of the respective compounds prepared in the above examples in Table A and d-sotalol as a control medicine, and APD75 (%) was calculated from the measured results in accordance with the formula: […]
A: APD75 before administration
B: APD75 after administration
Here, APD75 was measured as follows: A field stimulation of 1 Hz was given to the right ventricular free wall, and any variation of an action potential was depicted on an oscilloscope via a glass microelectrode (10 to 20 M.OMEGA.) thrust into a Purkinje fiber of the free wall and via an amplifier. Afterward, a waveform on the oscilloscope was analyzed by the use of a computer, and the time of from a point of the action potential generation to a point of 75% repolarization was measured. This measured time was regarded as the myocardial action potential duration time (APD75).
The compounds and d-sotalol shown in Table A were separately added to the refluxing nutritional solution (20 ml), and after 20 minutes' incubation, APD75 after the administration was calculated from the variation of the myocardial action potential duration time.
Incidentally, this test was carried out in accordance with a Sato et al's method [H. Sato, K. Hashimoto, Arzneimeittel Forschung, 34 (1), 3a, 376-380 (1984)].

Where a name gives a salt, the structure may show the parent alone.

Turning to `Cn1c(N2CCN(CCCOc3ccccc3N)CC2)cc(=O)n(C)c1=O` [Compound 69], in data set [1], the change in vivo at 0.1 mg/kg amounted to 0%, the change in vivo at 0.3 mg/kg was 6.3% and the change in vivo at 1 mg/kg was 12.5%. In addition, the mortality at 24 h in data set [2] is 0%. In addition, in data set [3], the percent prolongation of action potential duration (APD75) at 3 µg/mL worked out at 24% and the percent prolongation of action potential duration (APD75) at 10 µg/mL came to 34%.

Regarding `Cn1c(N2CCN(CCCOc3ccc(S(C)(=O)=O)cc3)CC2)cc(=O)n(C)c1=O` [Compound 7], the mortality at 24 h in data set [2] was determined as 0%.

Take `Cn1c(N2CCN(CCCOc3ccc(Cl)cc3)CC2)cc(=O)n(C)c1=O` [Compound 64, 6-[4-(3-[4-chlorophenoxy]propyl)piperazin-1-yl]-1,3-dimethyl-2,4(1H,3H)-pyrimidinedione.hydrochloride]: in data set [1], the change in vivo at 0.1 mg/kg worked out at 2%, the change in vivo at 0.3 mg/kg was 6.3%, the change in vivo at 1 mg/kg is 13% and the change in vivo at 3 mg/kg worked out at 24.3%. In data set [2], the mortality at 24 h came out at 0%. In data set [3], this compound registered a percent prolongation of action potential duration (APD75) at 0.3 µg/mL of 7%, a percent prolongation of action potential duration (APD75) at 1 µg/mL of 14% and a percent prolongation of action potential duration (APD75) at 3 µg/mL of 25%.

In the case of `Cn1c(N2CCN(CCCOc3ccc(C(F)(F)F)cc3)CC2)cc(=O)n(C)c1=O` [Compound 2], the mortality at 24 h in data set [2] turned out to be 50%.

On to `Cn1c(N2CCN(CCCCOc3ccc(Cl)cc3)CC2)cc(=O)n(C)c1=O` [Compound 82, 6-[4-(4-[4-chlorophenoxy]butyl)piperazin-1-yl]-1,3-dimethyl-2,4(1H,3H)-pyrimidinedione.hydrochloride], for which the mortality at 24 h in data set [2] was 0%. Also, in data set [3], the percent prolongation of action potential duration (APD75) at 1 µg/mL stood at 16%, the percent prolongation of action potential duration (APD75) at 3 µg/mL was determined as 28% and the percent prolongation of action potential duration (APD75) at 10 µg/mL was found to be 43%.

For the compound `CC(=O)c1ccc(OCCCN2CCN(c3cc(=O)n(C)c(=O)n3C)CC2)cc1` [Compound 4], in data set [2], the mortality at 24 h is 0%. In data set [3], the percent prolongation of action potential duration (APD75) at 1 µg/mL amounted to 5% and the percent prolongation of action potential duration (APD75) at 3 µg/mL was 8%.

With `CC(=O)Nc1ccccc1OCCCN1CCN(c2cc(=O)n(C)c(=O)n2C)CC1` [Compound 18], in data set [1], the change in vivo at 0.3 mg/kg stood at 6.3% and the change in vivo at 1 mg/kg stood at 12.5%. Moreover, in data set [3], the percent prolongation of action potential duration (APD75) at 3 µg/mL worked out at 11% and the percent prolongation of action potential duration (APD75) at 10 µg/mL is 22%.

Consider `CCN(CCCOc1ccc(C(=O)c2ccccc2)cc1)CCNc1cc(=O)n(C)c(=O)n1C` [Compound 117, 1,3-dimethyl-6-[2-(N-ethyl-3-[4-benzoylphenoxy]propylamino)ethylamino]-2,4(1H,3H)-pyrimidinedione.oxalate], for which, in data set [1], the change in vivo at 0.1 mg/kg is 3.2%, the change in vivo at 0.3 mg/kg turned out to be 3.2%, the change in vivo at 1 mg/kg was found to be 6.9% and the change in vivo at 3 mg/kg was determined as 16.1%. Besides, in data set [3], the percent prolongation of action potential duration (APD75) at 1 µg/mL is 17% and the percent prolongation of action potential duration (APD75) at 3 µg/mL is 23%.

Regarding `Cn1c(N2CCN(CCCOc3ccccc3C(=O)CCc3ccccc3)CC2)cc(=O)n(C)c1=O` [Compound 31], in data set [1], the change in vivo at 0.1 mg/kg came out at 0%, the change in vivo at 0.3 mg/kg was 0%, the change in vivo at 1 mg/kg is 6.3% and the change in vivo at 3 mg/kg amounted to 12.9%. For the same compound, in data set [3], the percent prolongation of action potential duration (APD75) at 1 µg/mL amounted to 13% and the percent prolongation of action potential duration (APD75) at 3 µg/mL was determined as 16%.

Take `CC(C)C(=O)c1ccccc1OCCCN1CCN(c2cc(=O)n(C)c(=O)n2C)CC1` [Compound 25]: in data set [1], the change in vivo at 0.1 mg/kg was found to be 0%, the change in vivo at 0.3 mg/kg stood at 0%, the change in vivo at 1 mg/kg was 0% and the change in vivo at 3 mg/kg worked out at 7.6%. In data set [3], the percent prolongation of action potential duration (APD75) at 1 µg/mL is 13% and the percent prolongation of action potential duration (APD75) at 3 µg/mL was found to be 26%.

As to `CSc1ccc(OCCCN2CCN(c3cc(=O)n(C)c(=O)n3C)CC2)c(NS(C)(=O)=O)c1` [Compound 113, 1,3-dimethyl-6-[4-(3-[4-methylmercapto-2-methanesulfonamidophenoxy]propyl)piperazin-1-yl]-2,4(1H,3H)-pyrimidinedione.hydrochloride], in data set [1], the change in vivo at 0.1 mg/kg was determined as 0%, the change in vivo at 0.3 mg/kg turned out to be 0% and the change in vivo at 3 mg/kg amounted to 17.6%. In data set [3], this compound gave a percent prolongation of action potential duration (APD75) at 1 µg/mL of 2%, a percent prolongation of action potential duration (APD75) at 3 µg/mL of 17% and a percent prolongation of action potential duration (APD75) at 10 µg/mL of 26%.

Take `Cn1c(N2CCN(CCc3ccccc3)CC2)cc(=O)n(C)c1=O` [Compound 88, 1,3-dimethyl-6-[4-(2-phenylethyl)-piperazin-1-yl]-2,4(1H,3H)-pyrimidinedione.hydrochloride]: in data set [1], the change in vivo at 0.1 mg/kg stood at 2%, the change in vivo at 0.3 mg/kg is 6% and the change in vivo at 1 mg/kg came out at 11.7%. Moreover, in data set [3], the percent prolongation of action potential duration (APD75) at 3 µg/mL worked out at 26% and the percent prolongation of action potential duration (APD75) at 10 µg/mL turned out to be 49%.

With `Cn1c(N2CCN(CCCOc3ccc(Cl)cc3Cl)CC2)cc(=O)n(C)c1=O` [Compound 43], in data set [1], the change in vivo at 0.1 mg/kg was determined as 0%, the change in vivo at 0.3 mg/kg came to 0%, the change in vivo at 1 mg/kg worked out at 7.7% and the change in vivo at 3 mg/kg worked out at 19.3%. In data set [3], this compound gave a percent prolongation of action potential duration (APD75) at 3 µg/mL of 13% and a percent prolongation of action potential duration (APD75) at 10 µg/mL of 18%.

For the compound `CC(C)NC[C@@H](O)c1ccc(NS(C)(=O)=O)cc1` [d-sotalol, reference compound], in data set [1], the change in vivo at 0.1 mg/kg came out at 1.7%, the change in vivo at 0.3 mg/kg is 6.7%, the change in vivo at 1 mg/kg stood at 8.7% and the change in vivo at 3 mg/kg turned out to be 15.5%. In data set [3], this compound registered a percent prolongation of action potential duration (APD75) at 0.3 µg/mL of 0%, a percent prolongation of action potential duration (APD75) at 1 µg/mL of 3%, a percent prolongation of action potential duration (APD75) at 3 µg/mL of 7.4% and a percent prolongation of action potential duration (APD75) at 10 µg/mL of 15.8%.

As for `CSc1ccc(OCCCN2CCN(c3cc(=O)n(C)c(=O)n3C)CC2)cc1` [Compound 98, 1,3-dimethyl-6-[4-(3-[4-methylthiophenoxy]propyl)piperazin-1-yl]-2,4 (1H,3H)-pyrimidinedione.hydrochloride], in data set [1], the change in vivo at 0.1 mg/kg was found to be 0%, the change in vivo at 0.3 mg/kg came to 0%, the change in vivo at 1 mg/kg turned out to be 7.7% and the change in vivo at 3 mg/kg turned out to be 15.4%. In data set [3], the percent prolongation of action potential duration (APD75) at 1 µg/mL was determined as 4%, the percent prolongation of action potential duration (APD75) at 3 µg/mL is 13% and the percent prolongation of action potential duration (APD75) at 10 µg/mL was 25%.

Take `CC(=O)c1ccccc1CCN1CCN(c2cc(=O)n(C)c(=O)n2C)CC1` [Compound 85, 1,3-dimethyl-6-[4-(2-[2-acetylphenyl]ethyl)piperazin-1-yl]-2,4(1H,3H)-pyrimidinedione.oxalate]: the mortality at 24 h in data set [2] stood at 0%.

Source of the values: patent US5332739A, “Pyrimidinedione derivatives and antiarrhythmic agents containing same” (Mitsui Toatsu Chemicals, Incorporated, priority 1990, dated 1994).
